Data from patent US11484558B2, “Epizootic hemorrhagic disease virus—tel aviv university (EHDV-TAU)—oncolytic virus for treating cancer” (Ramot at Tel-Aviv University Ltd., priority 2017, dated 2022).

Experiments:
LNCaP cells = assay: Trypan blue exclusion assay of infected LNCaP cells; assay type: cell-based, human; conditions: for effect of inhibitor on EHDV-TAU-LNCaP-induced cell death: Q-VD-OPH 20 μM, Necrostatin-1 75 μM, 45 hours
Experimental: LNCaP cells were infected (+) or not (−) with EHDV-TAU-LNCaP (0.05 PFU/cell, for 45 hours) and treated (+) or not (−) with Q-VD-OPH (20 μM, for 45 hours during infection, or 20 hours during STS treatment), Necrostatin-1 (75 μM, for 45 hours) or staurosporine (STS, 1 μM, for 20 hours; serves as positive control of apoptosis induction). Graph depicts mean±SE (n=3) of the percentage of cell death under the indicated conditions. *p<0.05; **p<0.005.
LNCaP cells were infected or not with EHDV-TAU-LNCaP (0.05 PFU/cell, for 45 hours) and treated, or not, with IFNα or the indicated EpMs. Graph depicts mean±SE (n=5) of percentage of cell death under the indicated conditions; *p<0.05; ***p<0.0005.
Trypan blue exclusion assay—2×10^5 LNCaP cells/well in a 12-well plate were infected, or not, under the indicated experimental conditions. For each well, detached and attached cells were collected together and mixed with 0.5% trypan blue at a 1:1 ratio. Cells were classified by trypan blue exclusion by light microscopy. Trypan blue (0.5%) was from Beit Haemek Biological Industries, Israel (cat. #03-102-1B).

LNCaP-JAK1 cells = assay: Immunoblot of NS3 in infected LNCaP-JAK1 cells; conditions: for effect of treatment on NS3 expression in EHDV-TAU-LNCaP-infected cells: LNCaP-JAK1, Baricitinib 0.5 μM, IFNα 200 U/ml, IFNγ 25 ng/ml, prior to and during infection

In the case of `Nc1ncn([C@H]2C[C@H](O)[C@@H](CO)O2)c(=O)n1` [5AC, 5-Aza-2′-deoxycytidine], the “effect on infection / virus-induced death” value (LNCaP cells; combination of 5AC and IFNα, compared to IFNα or 5AC alone) is reported as “reduced infection to a greater and significant degree”.

In the case of `CN1C(=O)C(Cc2c[nH]c3ccccc23)NC1=S` (stereo not shown) [Necrostatin-1], the “effect of inhibitor on EHDV-TAU-LNCaP-induced cell death” value (LNCaP cells) is reported as “partial reduction”.

`COC(=O)CC(NC(=O)C(NC(=O)c1ccc2ccccc2n1)C(C)C)C(=O)COc1c(F)cccc1F` (stereo not shown) [Q-VD-OPh, Quinolyl-valyl-O-methylaspartyl-[-2,6-difluorophenoxy]-methyl ketone, reference compound] was tested, and the “effect of inhibitor on EHDV-TAU-LNCaP-induced cell death” value (LNCaP cells) was “partial reduction” and the “effect on NS3 expression in infected, IL-6-treated cells” value (LNCaP-JAK1 cells; LNCaP-JAK1, Q-VD-OPh 20 μM, IL-6 5 ng/ml) was “failed to rescue NS3 expression”.

For `O=C(O)[C@H](Cc1c[nH]c2ccccc12)N1C(=O)c2ccccc2C1=O` [RG108, N-phthalyl-L-tryptophan], the “protection from EHDV-TAU-LNCaP-induced cell death” value (LNCaP cells; RG108 alone) was “partial protection” and the “effect on virus-induced cell death” value (LNCaP cells; combination of IFN and RG108, relative to untreated infected cells) was “reduced it to half”.

In the case of IFNα, the “effect on EHDV-TAU-LNCaP-induced cell death” value (LNCaP cells; IFN alone) is reported as “minimal reduction” and the “effect of treatment on NS3 expression in EHDV-TAU-LNCaP-infected cells” value (LNCaP-JAK1 cells) is reported as “abolished NS3 expression”.

For “IL-6: Human IL-6 (PeproTech), pleiotropic cytokine”, the “effect on productive EHDV-TAU-LNCaP infection” value (LNCaP-JAK1 cells; LNCaP-JAK1, IL-6) was “reduce productive EHDV-TAU-LNCaP infection”.

B1: IFNγ: human IFNγ (PeproTech) (protein, UniProt P01579 24-161, looked up)
Interferon gamma: QDPYVKEAENLKKYFNAGHSDVADNGTLFLGILKNWKEESDRKIMQSQIVSFYFKLFKNFKDDQSIQKSVETIKEDMNVKFFNSNKKKRDDFEKLTNYSVTDLNVQRKAIHELIQVMAELSPAAKTGKRKRSQMLFRG
B1 was tested, and the “effect of treatment on NS3 expression in EHDV-TAU-LNCaP-infected cells” value (LNCaP-JAK1 cells) was “abrogated NS3 production”.
